Data from patent publication US12410141B2, “Anti-cancer spirocyclic-guanidine compounds and uses thereof” (The Johns Hopkins University, priority 2020, dated 2025).

Legend:
[1] = tested on: human foreskin fibroblasts (HFF); assay: MTT cytotoxicity assay, human foreskin fibroblasts; assay type: cell-based; details: non-transformed human foreskin fibroblasts, 72 hr, highest concentration tested 2.5 μM, read-out: IC50, cell killing
Method: (§1) All cell lines were obtained from the American Type Culture Collection (ATCC) and cultured in the specified medium supplemented with 10% fetal bovine serum, 100 IU/mL penicillin, and 100 μg/mL streptomycin at 37° C. in a humidified 5% CO2/95% air incubator. To assess drug cytotoxicity cells were seeded at 2,500 cells/well (10,000 cells/well for MM lines and primary cells) in 100 μL medium in 96-well plate. […]
(§2) It was examined whether the RPN13 inhibitor, RA475, was cytotoxic for cancer cell lines using the MTT assay.

BT549 = assay: MTT cytotoxicity assay, BT549; assay type: cell-based; details: BT549, breast, 72 hr, read-out: IC50, cell killing
Method: as §1, §2

[2] = target: T1, 42 kDa cellular protein, consistent with RPN13 (Homo sapiens, UniProt Q16186); assay: Up284B competitive labeling assay in SKOV3 or ES2 cell lysates; assay type: binding; details: pre-cleared SKOV3 or ES2 lysates, 45 min at 4° C., then 5 μM Up284B
T1 construct: endogenous in cells; host or cells: SKOV3 or ES2 cell lysates, pre-cleared with streptavidin-coated beads
T1 sequence (Q16186 whole entry): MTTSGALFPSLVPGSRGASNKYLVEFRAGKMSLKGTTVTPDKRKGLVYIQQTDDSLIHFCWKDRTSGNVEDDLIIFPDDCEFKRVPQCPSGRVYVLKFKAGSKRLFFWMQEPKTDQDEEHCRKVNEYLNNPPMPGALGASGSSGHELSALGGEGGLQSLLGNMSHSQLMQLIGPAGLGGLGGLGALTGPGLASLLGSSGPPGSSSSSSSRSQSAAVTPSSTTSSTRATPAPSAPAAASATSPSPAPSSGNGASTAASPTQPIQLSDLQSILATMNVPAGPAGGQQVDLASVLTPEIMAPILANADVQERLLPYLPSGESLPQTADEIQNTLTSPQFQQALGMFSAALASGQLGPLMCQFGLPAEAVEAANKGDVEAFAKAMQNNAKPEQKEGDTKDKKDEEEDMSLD
Method: Clarified cell lysate (40 ug/sample) in MPER buffer was pretreated with streptavidin-coated magnetic beads for 45 min at 4° C. to deplete non-specific biotinylated proteins in the cell lysate. […] Next, the samples were mixed with Laemmli sample buffer (BioRad) and boiled for 5 min. The proteins were separated using a 4-15% Bio-Rad Mini-PROTEAN SDS-PAGE gel (1 hr at 100 V), and transferred to PVDF membrane overnight at 4° C. (24 V). The membrane was blocked with 5% BSA in PBST for 1 hr at RT and washed for 20 minutes (3× with PBST). Then the membrane was probed with HRP-streptavidin (1:10,000 in PBST) for 1 hr at RT, washed for 30 min (3× with PBST), and developed using HyGLO chemiluminescent detection reagent (Denville) for biotin detection.
Briefly SKOV3 or ES2 cell lysates were first pre-cleared with streptavidin-coated beads to deplete endogenous biotinylated proteins. The pre-cleared lysates were then divided into equal aliquots. […] The lysates were then boiled in gel sample buffer, separated by SDS-PAGE, and transferred to a PVDF membrane.

[3] = tested on: ID8-Vegf Defb29 cells stably expressing firefly luciferase in C57BL6 mice; assay: ID8-Luc syngeneic ovarian tumor model; assay type: in vivo, mouse; details: female C57BL6 mice, 40 mg/Kg every 3 days, i.p.
Method: Whereas vehicle treatment (n=7) increased tumor burden and ascites formation.
Briefly, female C57BL6 mice were injected (i.p.) with ID8-Vegf Defb29 cells stably expressing firefly luciferase (0.5×10^6 cells) in PBS (100 uL). After 72 hrs, mice were imaged for their basal luminescence levels using an IVIS200 imager. Mice with visible luminescence were randomized into two groups and treated with Vehicle (25% b-hydroxy propylcyclodextrin in water, 200 uL, every 3 days, i.p.) and RA475 (40 mg/Kg, every 3 days, i.p.). Mice were imaged every week to measure bioluminescence expressed by tumor after administration of luciferin (100 uL, 7.8 mg/mL).

cancer cells = assay: MTT cytotoxicity assay, cancer cell lines overall; assay type: cell-based; details: all solid cancer-derived cell lines tested (Table 1)
Method: All cell lines were obtained from the American Type Culture Collection (ATCC) and cultured in the specified medium supplemented with 10% fetal bovine serum, 100 IU/mL penicillin, and 100 μg/mL streptomycin at 37° C. in a humidified 5% CO2/95% air incubator. To assess drug cytotoxicity cells were seeded at 2,500 cells/well (10,000 cells/well for MM lines and primary cells) in 100 μL medium in 96-well plate. The cells were treated with compounds for 48 h, and cells were incubated according to the manufacturer's protocol with the Thiazolyl Blue Tetrazolium Bromide (Sigma, M2128) and A570 measured using a Benchmark Plus microplate spectrophotometer (BIO-RAD).
as §2

Br23C = assay: MTT cytotoxicity assay, Br23C; assay type: cell-based; details: glioblastoma multiforme, 72 hr, read-out: IC50, cell killing
Method: as §1, §2

MCF7 = assay: MTT cytotoxicity assay, MCF7; assay type: cell-based; details: MCF7, breast, 72 hr, read-out: IC50, cell killing
Method: as §1, §2

[4] = tested on: 4T1 cells stably expressing 4UbFL; assay: 4UbFL proteasome reporter, 4T1 cells; assay type: cell-based; details: 4 hr treatment, IVIS imager
Method: Data are presented as IVIS image (FIG. 8A) and bioluminescence units (FIG. 8B).
4T1 and HCC1806 cells were transfected with 4UbFL plasmid using TransIT2020 transfection reagent for a period of 48 hrs and cells were selected using G418 antibiotic from single colonies. Selected cells were seeded in a 24-well plate (50,000/well) and incubated for 18 h at 37° C. in an incubator. Next, cells were treated with compounds for the period of 4 hr and Luciferin was added (50 uL each well, 7.8 mg/mL) and imaged through an IVIS200 instrument and plotted as a bioluminescent value or fold increase to DMSO control.

MC38 = assay: MTT cytotoxicity assay, MC38; assay type: cell-based; details: MC38, colon, 72 hr, read-out: IC50, cell killing
Method: as §1, §2

OVCAR3 = assay: MTT cytotoxicity assay, OVCAR3; assay type: cell-based; details: OVCAR3, ovarian, 72 hr, read-out: IC50, cell killing
Method: as §1, §2

MDA-MB-468 = assay: MTT cytotoxicity assay, MDA-MB-468; assay type: cell-based; details: MDA-MB-468, breast, 72 hr, read-out: IC50, cell killing
Method: as §1, §2

PEA2 = assay: MTT cytotoxicity assay, PEA2; assay type: cell-based; details: PEA2, ovarian, 72 hr, read-out: IC50, cell killing
Method: as §1, §2

PACS = assay: MTT cytotoxicity assay, PACS; assay type: cell-based; details: ovarian (mouse), 72 hr, read-out: IC50, cell killing
Method: as §1, §2

HepG2 = assay: MTT cytotoxicity assay, HepG2; assay type: cell-based; details: HepG2, liver, 72 hr, read-out: IC50, cell killing
Method: as §1, §2

TC1 = assay: MTT cytotoxicity assay, TC1; assay type: cell-based; details: TC1, cervical, 72 hr, read-out: IC50, cell killing
Method: as §1, §2

ES2 = assay: MTT cytotoxicity assay, ES2; assay type: cell-based; details: ES2, ovarian, 72 hr, read-out: IC50, cell killing
Method: as §1, §2

SMILES: Cl.Cl.N#Cc1ccc(/C=C2/C(=O)/C(=C/c3ccc(C#N)cc3)C23CCN(C(=N)N)CC3)cc1 [RA475]
- IC50 [1]: > 2500 nM
- IC50 (BT549): 229 nM
- competition with binding of Up284B probe to RPN13 [2]: dose-dependently competed
- body weight [3]: no weight loss
- effect on tumor (bioluminescence) [3]: regressed tumor
- survival [3]: enhanced survival
- IC50 across cancer cell lines (cancer cells): Sub micromolar
- IC50 (Br23C): 750 nM
- IC50 (MCF7): 742 nM
- bioluminescence of 4UbFL reporter [4]: dose-dependent increase
- IC50 (MC38): 359 nM
- IC50 (OVCAR3): 190 nM
- IC50 (MDA-MB-468): 292 nM
- IC50 (PEA2): 356 nM
- IC50 (PACS): 581 nM
- IC50 (HepG2): 241 nM
- IC50 (TC1): 217 nM
- IC50 (ES2): 160 nM
